Assays:
MLD capsid II [1] = molecular target: T1, MLD capsid II (Escherichia phage T7, UniProt P03728+P19726); assay: Diffusion-driven permeation of dyes into internal cavity of MLD capsid II; format: physicochemical; conditions: entry through the gp8 portal
T1 construct: These latter capsid shells are produced during DNA packaging
From the text: MLD Capsid II. […] Thus, bis-ANS, ethidium, and presumably other similarly sized compounds enter MLD capsid II through the gp8 portal (see FIG. 1a).

T7 MLD capsid II = molecular target: T2, T7 MLD capsid II (Escherichia phage T7, UniProt P03728+P19726); conditions: 25° C.; FIG. 5 adapted from Khan et al. 1992; cited from earlier work
T2 construct: These latter capsid shells are produced during DNA packaging

MHD capsid II = molecular target: T3, MHD capsid II (Escherichia phage T7, UniProt P19726); assay: Fluorescence (I) vs. time binding of bis-ANS to connector-free capsid; format: physicochemical; conditions: capsid II particle without connector
T3 construct: These latter capsid shells are produced during DNA packaging; made in house; host or cells: phage-infected E. coli (inferred)
From the text: For measuring the rate of loading of a compound in MLD capsid II, an alternative to AUC-BD is usually needed for reasons of efficiency of time and cost. Total fluorescence (/) has been used to determine the rate of loading for bis-ANS, because bis-ANS undergoes fluorescence enhancement when it binds to hydrophobic areas of proteins, including several internal T7 proteins (gps8, gps15, gps16)—the T7 proteins bound were identified by ultraviolet light-induced, covalent cross-linking to bis-ANS after binding. The value of I vs. time at 25° C. is plotted in FIG. 5 (adapted from Khan et al., Biophys. J. 1992, 63:1286-1292), during incubation of bis-ANS with T7 MLD capsid II and also the mature phage T7 and a T7 deletion mutant, C5-LG3. Binding to the exterior of the capsid was so rapid that it was complete before the first measurement. […] Thus, the loading rate is simply observed by measuring I vs. time and subtracting the initial signal. […] MLD capsid II-bound bis-ANS fluorescence is quenched by incubation with ethidium cation.

MLD capsid II [2] = molecular target: T1, MLD capsid II; assay: Buoyant density after incubation with sodium iothalamate; format: physicochemical; conditions: 25° C.; loads, but very slowly
From the text: Assays for Loading. To assay for diffusion-driven loading of a compound in the cavity of MLD capsid II, the most direct method is to perform buoyant density equilibrium centrifugation in a non-ionic density gradient of either Metrizamide (mw=789) or the closely related compound, Nycodenz (mw=821). If a compound enters MLD capsid II, the density changes after loading. Most dyes and drugs would, if loaded, cause the density of MLD capsid II to increase. The reason is that most dyes and drugs are denser than water and a loaded dye or drug molecule replaces internal MLD capsid II water. The exceptionally high hydration of MLD capsid II causes the density of MLD capsid II to be extremely low, typically between 1.08 and 1.12 g/ml, decreasing with increasing centrifugation speed, i.e., with increasing pressure (unpublished observations of the laboratories of Borries Demeler and Philip Serwer).
As the temperature decreases, the loading rate is expected to decrease, eventually to zero at a critical temperature. The critical temperature is expected to decrease as the molecular weight of the compound loaded decreases. The borderline for loading MLD capsid II at 25° C. is somewhat higher than 612, based on the fact that iothalamate anion (mw =612) loads, but very slowly (>19 hours), as determined by the buoyant density after incubation with sodium iothalamate. […]

MLD capsid II [3] = molecular target: T1, MLD capsid II; assay: AUC-BD in a Nycodenz density gradient after pre-centrifugation incubation; format: physicochemical
Experimental: By use of recent technical advances, both densities and their pressure dependence have been explored by use of analytical buoyant density equilibrium sedimentation (AUC-BD) performed with a Nycodenz density gradient and a fluorescence detector. The data were analyzed with the UltraScan-III software (Demeler et al., (2012) UltraScan-III, a comprehensive analysis software for analytical ultracentrifugation experiments. The University of Texas Health Science Center at San Antonio, Dept. of Biochemistry). […] The sources of the peak sharpness are small diffusion coefficient and uniform density of phage and phage capsids. […] Fluorescence detection provides picomolar sensitivity and several orders of magnitude of dynamic range. AUC-BD is also efficient in that (1) no gradient fractionation and analysis of separate fractions is needed, (2) sample concentrations in the picomolar range are used, over 2 orders of magnitude less than what is needed for other procedures of detection, (3) 14 samples can be simultaneously run and (4) pressure and temperature dependences are determined with one set of samples by progressively changing the speed and temperature of centrifugation.
The details of the AUC-BD are the following. […] If the particle is uniform in density and its diffusion is low, then a sharp peak of fluorescence will form. […]

## CC(=O)Nc1c(I)c(C(=O)N[C@H]2C(O)O[C@H](CO)[C@@H](O)[C@@H]2O)c(I)c(N(C)C(C)=O)c1I (some centres unmarked) [Metrizamide]
MLD capsid II [1]
  diffusion into the internal cavity of MLD capsid II: never been observed to detectably diffuse into MLD capsid II

## O=S(=O)(O)c1cccc2c(-c3ccc(Nc4ccccc4)c4c(S(=O)(=O)O)cccc34)ccc(Nc3ccccc3)c12 [bis-ANS, 4,4′-dianilino-1,1′-binaphthyl-5,5′-disulfonic acid]
T7 MLD capsid II
  time of bis-ANS binding to the interior (loading): several hours
MLD capsid II [1]
  diffusion into the internal cavity of MLD capsid II: diffuse into the internal cavity of MLD capsid II (over hours)
MHD capsid II
  bis-ANS binding kinetics: Only rapid (effectively instantaneous) binding

## CNC(=O)c1c(I)c(NC(C)=O)c(I)c(C(=O)O)c1I [iothalamate]
MLD capsid II [2]
  loading time: > 19 h

## CC[n+]1c(-c2ccccc2)c2cc(N)ccc2c2ccc(N)cc21 [ethidium]
MLD capsid II [1]
  diffusion into the internal cavity of MLD capsid II: diffuse into the internal cavity of MLD capsid II (over hours)

## CC(=O)N(CC(O)CO)c1c(I)c(C(=O)NCC(O)CO)c(I)c(C(=O)NCC(O)CO)c1I (centres unmarked) [Nycodenz]
MLD capsid II [3]; pre-centrifugation incubation at 61° C. and 68° C., conversion to high-density particle, shell intact
  entry into MLD capsid II: does enter
MLD capsid II [3]; pre-centrifugation incubation at temperatures as high as 54° C.
  entry into MLD capsid II: does not enter MLD capsid II

— US20150328322A1, “DRUG DELIVERY VEHICLES” (priority 2012, published 2015)
